In general, Kd refers to a measure of binding affinity in units of concentration.

We go through 14 compounds from PMC9858421 (Journal of Enzyme Inhibition and Medicinal Chemistry, 2023).

Structures are written as SMILES. Entries after “also recorded” stand apart in the source; their conditions may differ. Like-named read-outs stand apart in the source and are kept apart here.

Assay [1] addresses T1, hVDAC1 (Homo sapiens, UniProt P21796). The assay is described as follows: MST binding check. As to conditions: 100 nM hVDAC1, highest soluble ligand concentration.
A further assay concerns the target rVDAC1. The note with it: cited from earlier work.
The target in assay [2] is T1, hVDAC1. Briefly: MST dose-response experiment. The format is binding.
The next assay deals with VDAC1. The note with it: PLB, cited from earlier work.
Assay [3] addresses T1, hVDAC1. The assay is described as follows: NanoDSF thermal shift. The format is binding. The note with it: hVDAC1 in LDAO; compared to hVDAC1 alone at 0% or 5% DMSO.
The target in assay [4] is T1, hVDAC1. The note with it: read-out: Published Kd; cited from earlier work.
Setting [5] is: MST dose-response, 100 nM hVDAC1, 16 concentrations.

T1 sequence (P21796 whole entry): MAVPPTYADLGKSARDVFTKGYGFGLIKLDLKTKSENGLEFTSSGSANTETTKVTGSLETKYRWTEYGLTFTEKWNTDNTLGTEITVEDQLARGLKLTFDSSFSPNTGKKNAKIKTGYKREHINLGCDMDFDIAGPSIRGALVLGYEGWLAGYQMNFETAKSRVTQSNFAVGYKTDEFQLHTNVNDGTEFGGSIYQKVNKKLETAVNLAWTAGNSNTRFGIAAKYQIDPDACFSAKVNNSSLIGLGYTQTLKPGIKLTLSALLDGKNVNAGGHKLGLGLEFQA

As for `CC(=O)Oc1ccccc1C(=O)O` [Aspirin], the “MST Binding Check” value is given as “Positive” on hVDAC1 [1] and “validated by binding check” on hVDAC1 [1] (listed as aspirin).

Turning to `C=C(C)[C@@H]1CCC(C)=C[C@H]1c1c(O)cc(CCCCC)cc1O` [Cannabidiol], the dissociation constant (Kd) at rVDAC1 (read-out: Published Kd, listed as cannabidiol) was 11 µM; at rVDAC1 (read-out: Published Kd), 11.2 µM; on hVDAC1 [2] it was 6 ± 2 µM; at hVDAC1 [2] (setting [5]), < 10 µM. The “MST Binding Check” value on hVDAC1 [1] is “Positive”. Moreover, the “Effect(s) on activity” value in the assay with VDAC1 (MST) is “Reduces conductance Increases mitochondrial Ca^2+”. Also, at hVDAC1 [3], the “Tm shift in NanoDSF (direction / significance, in words)” value is “increase the Tm; also recorded: positive”.

Regarding `O.Oc1cc(O)c2c(c1)O[C@H](c1ccc(O)c(O)c1)[C@@H](O)C2` [Catechin], the “Tm shift in NanoDSF (direction / significance, in words)” value on hVDAC1 [3] is recorded as “increase the Tm; also recorded: significant Tm shift”.

As for `COc1cc(/C=C/C(=O)CC(=O)/C=C/c2ccc(O)c(OC)c2)ccc1O` [Curcumin], at hVDAC1 [1], the “MST Binding Check” value was “Positive”. Besides, the Kd on hVDAC1 [2] is 6 ± 1 µM; at hVDAC1 [2] (setting [5]), < 10 µM. Also, the “Effect(s) on activity” value with VDAC1 is recorded as “Reduces conductance by promoting closed state(s)”. Also, at hVDAC1 [3], the “Tm shift in NanoDSF (direction / significance, in words)” value is “negative Tm shift”.

For `C(=NC1CCCCC1)=NC1CCCCC1` [DCCD], on hVDAC1 [1], the “MST Binding Check” value was “Positive”. Besides, the “Effect(s) on activity” value with VDAC1 (NMR, [14C] DCCD-labelled VDAC1) is reported as “Reduces conductance Inhibits HK-VDAC1 binding”. Besides, the “Tm shift in NanoDSF (direction / significance, in words)” value on hVDAC1 [3] is “increase the Tm”.

`O=C(O)c1ccccc1Nc1ccccc1` [DPC]: the Kd at rVDAC1 (read-out: Published Kd) is 150 µM. The “MST Binding Check” value on hVDAC1 [1] was “validated by binding check; also recorded: Positive”. Also, the “Effect(s) on activity” value in the assay with VDAC1 (MST) is “Reduces conductance Prevents oligomerization”. In addition, the “Tm shift in NanoDSF (direction / significance, in words)” value on hVDAC1 [3] is on record as “negative Tm shift”.

`Cc1cc(O)c2c(c1)C(=O)c1cc(O)cc(O)c1C2=O` [Emodin]: the “MST Binding Check” value at hVDAC1 [1] is “Positive”; on hVDAC1 [1] (listed as emodin), “binding was shown”. In addition, binding on hVDAC1 [2] was put at a Kd of 10 ± 5 µM. For the same compound, the “Tm shift in NanoDSF (direction / significance, in words)” value on hVDAC1 [3] is on record as “not been confirmed as VDAC1 ligands; also recorded: no significant changes in Tm”.

Regarding `CNCCC(Oc1ccc(C(F)(F)F)cc1)c1ccccc1` (centres unmarked) [Fluoxetine], the “Effect(s) on activity” value in the assay on VDAC1 was “Reduces conductance Prevents Cyto C release”.

Turning to `CCC(C)n1ncn(-c2ccc(N3CCN(c4ccc(OCC5COC(Cn6cncn6)(c6ccc(Cl)cc6Cl)O5)cc4)CC3)cc2)c1=O` (centres unmarked) [Itraconazole], the figures for the Kd at rVDAC1 (read-out: Published Kd) and on hVDAC1 [2] were 120 µM and 5 ± 2 µM, respectively. For the same compound, the “MST Binding Check” value at hVDAC1 [1] is “Positive”; at hVDAC1 [1] (listed as itraconazole), “binding was shown”.

With `CN(C)C(=N)N=C(N)N` [Metformin], the “MST Binding Check” value on hVDAC1 [1] was “Positive”; on hVDAC1 [1] (listed as metformin), “validated by binding check”. The “Effect(s) on activity” value with VDAC1 (MST) is listed as “Reduces conductance No binding observed by MST”. Moreover, the “Tm shift in NanoDSF (direction / significance, in words)” value at hVDAC1 [3] is recorded as “not been confirmed as VDAC1 ligands”.

Take `NC(=O)C1=CN([C@@H]2O[C@H](COP(=O)(O)OP(=O)(O)OC[C@H]3O[C@@H](n4cnc5c(N)ncnc54)[C@H](O)[C@@H]3O)[C@@H](O)[C@H]2O)C=CC1` [NADH]: the “MST Binding Check” value at hVDAC1 [1] is given as “validated by binding check; also recorded: Positive”. Also, the dissociation constant Kd at hVDAC1 [4] was 9000 µM. The “Effect(s) on activity” value in the assay on VDAC1 (NMR) is reported as “Affects gating without reducing the conductance Sterically closes the channel”. The “Tm shift in NanoDSF (direction / significance, in words)” value on hVDAC1 [3] is on record as “not been confirmed as VDAC1 ligands”.

Consider `CC(C)CCC[C@@H](C)[C@H]1CC[C@H]2[C@@H]3CCC4=CC(=NO)CC[C@]4(C)[C@H]3CC[C@]12C` [Olesoxime], for which the “MST Binding Check” value on hVDAC1 [1] is “Positive”; at hVDAC1 [1] (listed as olesoxime), “validated by binding check”. For the same compound, in the assay on VDAC1, the “Effect(s) on activity” value is reported as “Reduces conductance”. The “Tm shift in NanoDSF (direction / significance, in words)” value on hVDAC1 [3] was “negative Tm shift”.

For `CC(C)c1cccc(C(C)C)c1O` [Propofol], the “MST Binding Check” value on hVDAC1 [1] was “Positive”. For the same compound, the Kd on hVDAC1 [2] is > 650 µM. Also, the “Effect(s) on activity” value in the assay on VDAC1 is “Promotes closure when a negative voltage is applied No effects on open state conductance”. Moreover, on hVDAC1 [3], the “Tm shift in NanoDSF (direction / significance, in words)” value was “increase the Tm”.

As for `C=C[C@H]1C[N@@]2CC[C@H]1C[C@@H]2[C@@H](O)c1ccnc2ccc(OC)cc12` [Quinidine], the figures for the “MST Binding Check” value at hVDAC1 [1] and on hVDAC1 [1] (listed as quinidine) were “Positive” and “validated by binding check”, respectively. The “Tm shift in NanoDSF (direction / significance, in words)” value on hVDAC1 [3] is given as “negative Tm shift”.
